The values that follow come from ChEMBL document CHEMBL3751730, “Synthesis and in vitro antitumor evaluation of dihydroartemisinin-cinnamic acid ester derivatives” (Eur J Med Chem, 2016).

Structures are written as SMILES. Calls of active or inactive are those of the source. No cut-off for these calls is given here.

Data set [1] concerns A549. Description: Antiproliferative activity against human A549 cells at 0.40 uM after 72 hrs by MTT assay. It is filed as functional, cell-based. In general terms: Tetrazolium assays rely on reduction of a dye to a coloured formazan, in cell work by metabolically active cells.
Data set [2] deals with A549. As to the kind of experiment: Antiproliferative activity against human A549 cells at 0.40 uM after 72 hrs by MTT assay in presence of 0.20 uM 9alpha-DHA. It is filed as functional, cell-based.
Data set [3] can be described thus: Drug degradation at 2 to 4 mg at 210 to 220 degC by thermogravimetric analysis in the presence of nitrogen gas. It is filed as physicochemical. The note with it: for degraded: in vivo, read-out: Drug degradation.
Data set [4] is described as follows: Chemical stability of the compound at 2 to 4 mg at 25 to 300 degC by differential scanning […] analysis in the presence of nitrogen gas. It counts as physicochemical.
The nature of data set [5]: Antiproliferative activity against human PC3 cells after 72 hrs by MTT assay. It counts as functional, cell-based. The note with it: PC-3, 72 h.
A short description of data set [6]: Antiproliferative activity against human SGC7901 cells after 72 hrs by MTT assay. It counts as functional, cell-based. The note with it: SGC-7901, 72 h.
Data set [7] deals with A549. As to the kind of experiment: Antiproliferative activity against human A549 cells after 72 hrs by MTT assay. It is filed as functional, cell-based. The note with it: A549, 72 h.
A short description of data set [8]: Antiproliferative activity against human MDA-MB-435S cells after 72 hrs by MTT assay. It counts as functional, cell-based.
A short description of data set [9]: Cytotoxicity against human L02 cells after 72 hrs by MTT assay. The note with it: L02, 72 h. It is filed as cell-based.
The nature of data set [10]: Selectivity index, ratio of IC50 for human L02 cells to IC50 for human A549 cells. It is filed as functional.
Data set [11] concerns A549. As to the kind of experiment: Antiproliferative activity against human A549 cells at 0.20 uM after 72 hrs by MTT assay. It is filed as functional, cell-based.
Data set [12] deals with A549. Description: Antiproliferative activity against human A549 cells at 0.20 uM after 72 hrs by MTT assay in presence of 0.40 uM 3,4-dimethoxycinnamic acid. It counts as functional, cell-based.

Take `COc1ccc(/C=C/C(=O)O)cc1OC`: the outcome in data set [1] and in [2] was inactive.

One may read the IC50 as the midpoint of a concentration-inhibition curve. Higher therefore signals lower potency. On to `C[C@@H]1[C@H](OC(=O)/C=C/c2ccccc2)C[C@H]2[C@@H](C)[C@H](OC(=O)/C=C/c3ccccc3)O[C@@H]3O[C@@]4(C)CC[C@@H]1[C@]32OO4`, for which the degraded in data set [3] stood at 1%. The Stability entry in [4] is on record as “Stable”. Also, the IC50 turned out to be 36 µM in [5], 12.8 µM in data set [6], 4.42 µM in data set [7] and 18 µM in [8].

As to `O=c1[nH]cc(F)c(=O)[nH]1` [FLUOROURACIL], the IC50 in data set [5] turned out to be 42.5 µM; in [6], 11.9 µM; in data set [8] it was 15.2 µM; in data set [9] it was 25.9 µM. In addition, the “Ratio IC50” value in [10] is 3.83.

In the case of `COc1cc(/C=C/C(=O)O[C@@H]2O[C@@H]3O[C@@]4(C)CC[C@H]5[C@H](C)[C@H](OC(=O)/C=C/c6cc(OC)c(OC)c(OC)c6)C[C@@H]([C@H]2C)[C@@]35OO4)cc(OC)c1OC`, the degraded in [3] amounted to 1%. The Stability result in data set [4] is reported as “Stable”. For the same compound, the IC50 in [5] turned out to be 17.2 µM; in data set [6], 11.8 µM; in data set [7], 0.5 µM; in data set [8] it was 5.33 µM; in data set [9], 58.6 µM. Also, the “Ratio IC50” value in [10] was determined as 117.3.

Take `C[C@@H]1[C@H](OC(=O)CCc2ccccc2)C[C@H]2[C@@H](C)[C@H](OC(=O)CCc3ccccc3)O[C@@H]3O[C@@]4(C)CC[C@@H]1[C@]32OO4`: the IC50 was 20.5 µM in data set [5], 87.8 µM in data set [6], 43.2 µM in data set [7] and > 100 µM in data set [8].

Regarding `C[C@@H]1[C@H](O)C[C@H]2[C@@H](C)[C@H](OC(=O)/C=C/c3cccc(Cl)c3)O[C@@H]3O[C@@]4(C)CC[C@@H]1[C@]32OO4`, the IC50 in data set [5] was > 100 µM; in data set [6], > 100 µM; in [7], > 100 µM; in data set [8] it was 95.9 µM.

Turning to `C[C@@H]1[C@H](OC(=O)/C=C/c2ccccc2Cl)C[C@H]2[C@@H](C)[C@H](OC(=O)/C=C/c3ccccc3Cl)O[C@@H]3O[C@@]4(C)CC[C@@H]1[C@]32OO4`, the IC50 was 76.2 µM in data set [5], > 100 µM in data set [6], 96.2 µM in [7] and > 100 µM in data set [8].

As to `C[C@@H]1[C@H](OC(=O)/C=C/c2cccc(Cl)c2)C[C@H]2[C@@H](C)[C@H](OC(=O)/C=C/c3cccc(Cl)c3)O[C@@H]3O[C@@]4(C)CC[C@@H]1[C@]32OO4`, the IC50 in [5] came out at 11.1 µM; in data set [6], 12 µM; in data set [7], 2.72 µM; in [8] it was 22.4 µM.

Regarding `C[C@@H]1[C@H](O)C[C@H]2[C@@H](C)[C@@H](O)O[C@@H]3O[C@@]4(C)CC[C@@H]1[C@]32OO4`, the result in [11] and in data set [12] was inactive. The IC50 was > 100 µM in data set [5], > 100 µM in data set [6], > 100 µM in data set [7] and 57.8 µM in data set [8].

As to `C[C@@H]1[C@H](OC(=O)/C=C/c2ccc(F)cc2)C[C@H]2[C@@H](C)[C@H](OC(=O)/C=C/c3ccc(F)cc3)O[C@@H]3O[C@@]4(C)CC[C@@H]1[C@]32OO4`, the IC50 in data set [5], in data set [6], in data set [7] and in [8] was > 100 µM throughout.

On to `C[C@@H]1[C@H](O)C[C@H]2[C@@H](C)[C@H](OC(=O)/C=C/c3ccc([N+](=O)[O-])cc3)O[C@@H]3O[C@@]4(C)CC[C@@H]1[C@]32OO4`, for which the IC50 in data set [5], in data set [6], in [7] and in data set [8] was > 100 µM throughout.

In the case of `C[C@@H]1[C@H](OC(=O)/C=C/c2ccc([N+](=O)[O-])cc2)C[C@H]2[C@@H](C)[C@H](OC(=O)/C=C/c3ccc([N+](=O)[O-])cc3)O[C@@H]3O[C@@]4(C)CC[C@@H]1[C@]32OO4`, the IC50 in [5] is 10.7 µM; in data set [6], 18.8 µM; in data set [7], > 100 µM; in data set [8] it was > 100 µM.

For `Cc1ccc(/C=C/C(=O)O[C@@H]2O[C@@H]3O[C@@]4(C)CC[C@H]5[C@H](C)[C@H](OC(=O)/C=C/c6ccc(C)cc6)C[C@@H]([C@H]2C)[C@@]35OO4)cc1`, the IC50 was 87.2 µM in [5], > 100 µM in data set [6], > 100 µM in [7] and > 100 µM in data set [8].

In the case of `C[C@@H]1[C@H](OC(=O)/C=C/c2ccc(Cl)cc2)C[C@H]2[C@@H](C)[C@H](OC(=O)/C=C/c3ccc(Cl)cc3)O[C@@H]3O[C@@]4(C)CC[C@@H]1[C@]32OO4`, the degraded in [3] turned out to be 1%. For the same compound, the Stability result in [4] was “Stable”. Moreover, the IC50 in [5] stood at 6.76 µM; in [6], 21.3 µM; in [7] it was 1.5 µM; in [8] it was 58.3 µM.

For the compound `COc1cccc(/C=C/C(=O)O[C@@H]2O[C@@H]3O[C@@]4(C)CC[C@H]5[C@H](C)[C@H](OC(=O)/C=C/c6cccc(OC)c6)C[C@@H]([C@H]2C)[C@@]35OO4)c1`, the degraded in data set [3] was found to be 1%. In data set [4], the Stability result is on record as “Stable”. Also, the IC50 was found to be 43.9 µM in data set [5], 16.2 µM in [6], 0.8 µM in data set [7] and 18.2 µM in data set [8].

Regarding `C[C@H]1[C@@H](O)O[C@@H]2O[C@@]3(C)CC[C@H]4[C@H](C)CC[C@@H]1[C@@]24OO3` [ARTENIMOL], the Stability entry in data set [3] is “Unstable”. The IC50 in data set [5] was > 100 µM; in data set [6], > 100 µM; in data set [7], 80.4 µM; in data set [8], 21.9 µM; in data set [9], 146 µM. The “Ratio IC50” value in data set [10] stood at 1.81.

With `COc1ccc(/C=C/C(=O)O[C@@H]2O[C@@H]3O[C@@]4(C)CC[C@H]5[C@H](C)[C@H](OC(=O)/C=C/c6ccc(OC)cc6)C[C@@H]([C@H]2C)[C@@]35OO4)cc1`, the IC50 is 9.58 µM in data set [5], 28.3 µM in [6], 7.01 µM in data set [7] and 41.5 µM in data set [8].

As for `COc1ccc(/C=C/C(=O)O[C@@H]2O[C@@H]3O[C@@]4(C)CC[C@H]5[C@H](C)[C@H](O)C[C@@H]([C@H]2C)[C@@]35OO4)cc1OC`, the IC50 is > 100 µM in data set [5], > 100 µM in data set [6], 28.9 µM in [7] and 61 µM in data set [8].

Regarding `C[C@@H]1[C@H](OC(=O)/C=C/c2ccc(C(F)(F)F)cc2)C[C@H]2[C@@H](C)[C@H](OC(=O)/C=C/c3ccc(C(F)(F)F)cc3)O[C@@H]3O[C@@]4(C)CC[C@@H]1[C@]32OO4`, the IC50 in [5] amounted to 43.5 µM; in [6], 39.4 µM; in data set [7], 5.08 µM; in [8] it was 67.7 µM.

For the compound `C[C@@H]1[C@H](O)C[C@H]2[C@@H](C)[C@H](OC(=O)/C=C/c3ccc(C(F)(F)F)cc3)O[C@@H]3O[C@@]4(C)CC[C@@H]1[C@]32OO4`, the IC50 in data set [5] was > 100 µM; in data set [6], 85.7 µM; in [7], > 100 µM; in data set [8], > 100 µM.

On to `C[C@@H]1[C@H](O)C[C@H]2[C@@H](C)[C@H](OC(=O)/C=C/c3ccc(Cl)cc3)O[C@@H]3O[C@@]4(C)CC[C@@H]1[C@]32OO4`, for which the concentration for half-maximal inhibition (IC50) in [5] was > 100 µM; in data set [6], > 100 µM; in [7] it was > 100 µM; in data set [8] it was 98.6 µM.

Turning to `Cc1ccc(/C=C/C(=O)O[C@@H]2O[C@@H]3O[C@@]4(C)CC[C@H]5[C@H](C)[C@H](O)C[C@@H]([C@H]2C)[C@@]35OO4)cc1`, the IC50 in [5], in data set [6], in data set [7] and in [8] was > 100 µM each time.

For `COc1ccccc1/C=C/C(=O)O[C@@H]1O[C@@H]2O[C@@]3(C)CC[C@H]4[C@H](C)[C@H](OC(=O)/C=C/c5ccccc5OC)C[C@@H]([C@H]1C)[C@@]24OO3`, the concentration for half-maximal inhibition (IC50) in [5] was determined as 11.5 µM; in data set [6] it was 46.4 µM; in data set [7] it was 2.55 µM; in data set [8], 52.3 µM.

Turning to `COc1ccc(/C=C/C(=O)O[C@@H]2O[C@@H]3O[C@@]4(C)CC[C@H]5[C@H](C)[C@H](OC(=O)/C=C/c6ccc(OC)c(OC)c6OC)C[C@@H]([C@H]2C)[C@@]35OO4)c(OC)c1OC`, the 50% inhibitory concentration (IC50) in [5] was determined as 2.95 µM; in data set [6], 19.6 µM; in data set [7] it was 1.66 µM; in data set [8], 16.6 µM; in [9] it was 57.9 µM. In addition, the “Ratio IC50” value in data set [10] was 34.88.

`C[C@@H]1[C@H](O)C[C@H]2[C@@H](C)[C@H](OC(=O)/C=C/c3ccccc3Cl)O[C@@H]3O[C@@]4(C)CC[C@@H]1[C@]32OO4`: the IC50 in [5], in data set [6], in data set [7] and in data set [8] was > 100 µM each time.
